Experimental data as given in ChEMBL document CHEMBL4371047, “Effect of α-Methoxy Substitution on the Anti-HIV Activity of Dihydropyrimidin-4(3 H)-ones” (J Med Chem, 2019).

Assays:
[1] = system: Human immunodeficiency virus 1; experiment: Resistance index, ratio of EC50 for HIV-1 IRLL98 harboring reverse transcriptase M41L, D67N, Y181C, M184V, R211K, and T215Y mutants to EC50 for wild type HIV-1 NL4-3; format: functional
[2] = system: Human immunodeficiency virus type 1 reverse transcriptase (Human immunodeficiency virus 1), Q72547 [L100I]
[3] = Therapeutic index, ratio of CC50 for human MT4 cells to EC50 for HIV-1 NL4-3 infected in human MT4 cells; format: toxicity, cell-based; details: read-out: Ratio CC50/EC50
[4] = system: Human immunodeficiency virus 1; experiment: Antiviral activity against HIV-1 IRLL98 harboring reverse transcriptase M41L, D67N, Y181C, M184V, R211K, and T215Y mutants infected in human MT4 cells assessed as inhibition of virus-induced cytopathic effect after 5 days by MTT assay; format: functional, organism-based; details: Human immunodeficiency virus 1, IRLL98, MT4, 120 h
[5] = target: Human immunodeficiency virus type 1 reverse transcriptase (Human immunodeficiency virus 1) (UniProt Q72547)
Description: Inhibition of recombinant wild type HIV-1 His-tagged reverse transcriptase p66/p51 expressed in Escherichia coli assessed as reduction in [3H]dTTP incorporation using poly(rA)/oligo(dT) as template/primer after 20 mins by scintillation counting analysis

[6] = Cytotoxicity against human MT4 cells assessed as reduction in cell viability after 5 days by MTT assay; format: cell-based
[7] = system: Human immunodeficiency virus type 1 reverse transcriptase (Human immunodeficiency virus 1), Q72547 [K103N]
Description: Inhibition of recombinant HIV-1 His-tagged reverse transcriptase p66/p51 K103N mutant expressed in Escherichia coli assessed as reduction in [3H]dTTP incorporation using poly(rA)/oligo(dT) as template/primer after 20 mins by scintillation counting analysis

[8] = system: Human immunodeficiency virus 1; experiment: Resistance index, ratio of ID50 for recombinant HIV-1 His-tagged reverse transcriptase p66/p51 L100I mutant to ID50 for recombinant wild type HIV-1 reverse transcriptase His-tagged p66/p51
[9] = system: Human immunodeficiency virus type 1 reverse transcriptase (Human immunodeficiency virus 1), Q72547 [Y181I]
[10] = system: Human immunodeficiency virus 1; experiment: Resistance index, ratio of ID50 for recombinant HIV-1 His-tagged reverse transcriptase p66/p51 Y181I mutant to ID50 for recombinant wild type HIV-1 reverse transcriptase His-tagged p66/p51
[11] = system: Human immunodeficiency virus 1; experiment: Antiviral activity against HIV 1 harboring reverse transcriptase Y181C mutant infected in human MT4 cells assessed as inhibition of virus-induced cytopathic effect after 5 days by MTT assay; format: functional, organism-based; details: Human immunodeficiency virus 1, MT4, 120 h
[12] = system: Human immunodeficiency virus 1; experiment: Resistance index, ratio of ID50 for recombinant HIV-1 His-tagged reverse transcriptase p66/p51 K103N mutant to ID50 for recombinant wild type HIV-1 reverse transcriptase His-tagged p66/p51
[13] = system: Human immunodeficiency virus 1; experiment: Resistance index, ratio of EC50 for HIV-1 harboring reverse transcriptase Y181C mutant to EC50 for wild type HIV-1 NL4-3; format: functional
[14] = system: Human immunodeficiency virus 1; experiment: Antiviral activity against HIV-1 harboring reverse transcriptase Y188L mutant infected in human MT4 cells assessed as inhibition of virus-induced cytopathic effect after 5 days by MTT assay; format: functional, organism-based; details: Human immunodeficiency virus 1, MT4, 120 h
[15] = system: Human immunodeficiency virus 1; experiment: Antiviral activity against HIV-1 harboring reverse transcriptase K103N mutant infected in human MT4 cells assessed as inhibition of virus-induced cytopathic effect after 5 days by MTT assay; format: functional, organism-based; details: Human immunodeficiency virus 1, MT4, 120 h
[16] = system: Human immunodeficiency virus 1; experiment: Antiviral activity against wild type HIV 1 NL4-3 infected in human MT4 cells assessed as inhibition of virus-induced cytopathic effect after 5 days by MTT assay; format: functional, organism-based; details: Human immunodeficiency virus 1, NL4-3, MT4, 120 h
[17] = system: Human immunodeficiency virus 1; experiment: Resistance index, ratio of EC50 for HIV-1 harboring reverse transcriptase K103N mutant to EC50 for wild type HIV-1 NL4-3; format: functional
[18] = system: Human immunodeficiency virus 1; experiment: Resistance index, ratio of EC50 for HIV-1 harboring reverse transcriptase Y188L mutant to EC50 for wild type HIV-1 NL4-3; format: functional

Structure (SMILES) | Ratio EC50 [1] | ID50 [2] [nM] | selectivity ratio [3] | EC50 [4] [nM] | ID50 [5] [nM] | CC50 at 120 h [6] [nM] | ID50 [7] [nM] | Ratio [8] | ID50 [9] [nM] | Ratio [10] | EC50 [11] [nM] | Ratio [12] | Ratio EC50 [13] | EC50 [14] [nM] | EC50 [15] [nM] | EC50 [16] [nM] | Ratio EC50 [17] | Ratio EC50 [18]
CCC(c1nc(SC(C)C)[nH]c(=O)c1C)c1c(F)cccc1F (stereo not drawn) | 70 | 210 | > 7500 | 280 | 4 | > 30000 | 310 |  |  |  |  |  |  |  |  |  |  | 
CCCNc1nc(C(C)c2c(F)cccc2F)c(C)c(=O)[nH]1 (stereo not drawn) | 30 | 310 | 11700 | 90 | 40 | 35000 | 470 | 8 | 5020 | 125 | 60 | 12 | 20 | > 10000 |  |  |  | 
Cc1cc(C)c(Nc2ccnc(Nc3ccc(C#N)cc3)n2)c(C)c1 [DAPIVIRINE] |  |  |  | 6 |  |  |  |  |  |  |  |  |  |  | 2.2 | 0.6 |  | 
CCC(C)Sc1nc(C(CC)c2c(F)cccc2F)c(C)c(=O)[nH]1 (stereo not drawn) | 187 | 48 | > 3750 | 150 | 6 | > 3000 | 140 |  |  |  |  |  |  |  |  |  |  | 
Cc1c([C@H](C)c2c(F)cccc2F)nc(SC2CCCC2)[nH]c1=O |  | 90 | 185000 |  | 5 | 55600 | 10 | 18 | 150 | 30 | 11 | 2 | 37 | 140 | 1 | 0.3 | 3 | 467
CCC(C)Sc1nc(O)c(C)c(C(C)c2c(F)cccc2F)n1 (stereo not drawn) | 88 | 670 | > 3330 | 79 | 31 | > 3000 | 1700 |  |  |  |  |  |  |  |  |  |  | 
CCCN(C)c1nc([C@@H](OC)c2c(Cl)cccc2Cl)c(C)c(=O)[nH]1 |  | 4300 | 3010 |  | 177 | 45200 | 438 | 24 | 8700 | 49 | 185 | 2 | 12 | 380 | 185 | 15 | 12 | 25
COC(c1nc(NC2CCCC2)[nH]c(=O)c1C)c1c(Cl)cccc1Cl (stereo not drawn) |  | 1900 | 3400 |  | 56 | 34000 | 540 | 34 | 2400 | 43 | 1400 | 10 | 140 | 5400 | 840 | 10 | 84 | 540
Cc1c(C(C)c2c(F)cccc2F)nc(SC2CCCC2)[nH]c1=O (stereo not drawn) | 120 | 300 | > 3000 | 120 | 5 | > 3000 | 300 | 60 | 900 | 180 |  | 60 | 100 |  | 230 | 1 |  | 
CCC(c1nc(SC2CCCC2)[nH]c(=O)c1C)c1c(F)cccc1F (stereo not drawn) | 68 | 110 | 2730 | 750 | 5 | 30000 | 380 |  |  |  |  |  | 100 |  |  |  |  | 
Cc1c(O)nc(SC(C)C)nc1C(C)c1c(F)cccc1F (stereo not drawn) | 145 | 280 |  | 145 | 3 |  | 580 |  |  |  |  |  |  |  |  |  |  | 
Cc1c(C(C)c2c(F)cccc2Cl)nc(SC2CCCC2)[nH]c1=O (stereo not drawn) | 2267 | 120 | > 500000 | 68 | 11 | > 15000 | 1300 |  |  |  |  |  |  |  |  |  |  | 
COC(c1nc(NC(C)C)[nH]c(=O)c1C)c1c(F)cccc1Cl (stereo not drawn) |  | 1900 | > 2670 |  | 110 | > 77400 | 1600 | 17 | 3200 | 29 | 1400 | 14 | 48 | 8500 | 620 | 29 | 21 | 293
CCCN(C)c1nc([C@H](OC)c2c(Cl)cccc2Cl)c(C)c(=O)[nH]1 |  | 150 | 162000 |  | 8 | 65000 | 16 | 19 | 340 | 42 | 3 | 2 | 7 | 9 | 2 | 0.4 | 5 | 22
Cc1c([C@@H](C)c2c(F)cccc2F)nc(SC2CCCC2)[nH]c1=O |  | 2700 | 3240 |  | 155 | 35600 | 540 | 17 | 4800 | 31 | 1280 | 3 | 116 | 8200 | 282 | 11 | 26 | 745
